Laboratory results: patent US20230330251A1, “METHODS FOR TREATING CANCERS WITH ANTIBODY DRUG CONJUGATES (ADC) THAT BIND TO 191P4D12 PROTEINS” (AGENSYS, INC., priority 2020, published 2023)

Test system: patients with previously treated locally advanced or metastatic urothelial carcinoma (la/mUC) with poor prognostic factors
Test: EV-301 subgroup analyses of OS, PFS and ORR incl. hard-to-treat subgroups (age ≥65 years, liver metastasis, primary upper tract disease, CPI nonresponse)
Assay type: in vivo, human
Conditions: for ORR, EV vs SC Absolute Difference / Overall response rate (ORR), % / Overall response rate (ORR), n/N: Response-Evaluable Population
Experimental: Using FAS, the analysis for OS, PFS1 and ORR were repeated by ECOG PS (0 vs 1), regions of the world, and liver metastasis respectively.
In addition, subgroup analyses were conducted for selected endpoints to determine whether the treatment effect is consistent.
Subgroup analyses were prespecified for the primary endpoint of OS and secondary endpoints of investigator-assessed progression-free survival (PFS) and overall response rate (ORR) per RECIST v1.1. Kaplan-Meier analyses compared OS and PFS between treatments for selected hard-to-treat subgroups as follows: age ≥65 years, presence of liver metastasis, primary upper tract disease, and checkpoint inhibitor (CPI) nonresponse. ORR and safety were also evaluated within subgroups. The Cox proportional hazards model was used to estimate hazard ratios. The Cochran-Mantel-Haenszel test was used to compare response and disease control rates between groups.

**Q.** With enfortumab vedotin as the substance, how does the “Median OS” value (Age ≥65 yrs) read?
**A.** Its value is 14.32 mo.

**Q.** What about the “Median PFS” value (Age ≥65 yrs) of the same substance?
**A.** Its value is 5.65 mo.

**Q.** What about the “OS, EV vs SC HR” value (Age ≥65 yrs) of the same substance?
**A.** The value was 0.745.

**Q.** What about the “Overall survival (OS) Events, %” value (Age ≥65 yrs) of the same substance?
**A.** The value was “(44) %”.

**Q.** And the “Overall survival (OS) Events, n/N” value (Age ≥65 yrs)?
**A.** Its value is 85/193.

**Q.** What about the “PFS, EV vs SC HR” value (Age ≥65 yrs) of the same substance?
**A.** Its value is 0.616.

**Q.** What about the “Progression-free survival (PFS) Events, %” value (Age ≥65 yrs) of the same substance?
**A.** The value was “(65) %”.

**Q.** And the “Progression-free survival (PFS) Events, n/N” value (Age ≥65 yrs)?
**A.** Its value is 126/193.

**Q.** What about the “ORR, EV vs SC Absolute Difference” value (Age ≥65 yrs) of the same substance?
**A.** The value was 20.9%.

**Q.** What about the “Overall response rate (ORR), %” value (Age ≥65 yrs) of the same substance?
**A.** The value was 40.8%.

**Q.** And the “Overall response rate (ORR), n/N” value (Age ≥65 yrs)?
**A.** The value was 75/184.

**Q.** What about the “Median OS” value (CPI non-responder) of the same substance?
**A.** The value was 11.63 mo.

**Q.** What about the “Median PFS” value (CPI non-responder) of the same substance?
**A.** The value was 5.42 mo.

**Q.** And the “OS, EV vs SC HR” value (CPI non-responder)?
**A.** Its value is 0.757.

**Q.** And the “Overall survival (OS) Events, %” value (CPI non-responder)?
**A.** The value was “(48) %”.

**Q.** And the “Overall survival (OS) Events, n/N” value (CPI non-responder)?
**A.** The value was 100/207.

**Q.** What about the “PFS, EV vs SC HR” value (CPI non-responder) of the same substance?
**A.** Its value is 0.697.

**Q.** What about the “Progression-free survival (PFS) Events, %” value (CPI non-responder) of the same substance?
**A.** Its value is “(71) %”.

**Q.** What about the “Progression-free survival (PFS) Events, n/N” value (CPI non-responder) of the same substance?
**A.** Its value is 146/207.

**Q.** And the “ORR, EV vs SC Absolute Difference” value (CPI non-responder)?
**A.** Its value is 22.3%.

**Q.** What about the “Overall response rate (ORR), %” value (CPI non-responder) of the same substance?
**A.** The value was 39.7%.

**Q.** What about the “Overall response rate (ORR), n/N” value (CPI non-responder) of the same substance?
**A.** Its value is 79/199.

**Q.** And the “Median OS” value (Presence of Liver metastasis)?
**A.** Its value is 9.63 mo.

**Q.** And the “Median PFS” value (Presence of Liver metastasis)?
**A.** The value was 4.14 mo.

**Q.** What about the “OS, EV vs SC HR” value (Presence of Liver metastasis) of the same substance?
**A.** Its value is 0.660.

**Q.** What about the “Overall survival (OS) Events, %” value (Presence of Liver metastasis) of the same substance?
**A.** Its value is “(57) %”.

**Q.** And the “Overall survival (OS) Events, n/N” value (Presence of Liver metastasis)?
**A.** Its value is 53/93.

**Q.** And the “PFS, EV vs SC HR” value (Presence of Liver metastasis)?
**A.** Its value is 0.597.

**Q.** And the “Progression-free survival (PFS) Events, %” value (Presence of Liver metastasis)?
**A.** Its value is “(76) %”.

**Q.** And the “Progression-free survival (PFS) Events, n/N” value (Presence of Liver metastasis)?
**A.** Its value is 71/93.

**Q.** And the “ORR, EV vs SC Absolute Difference” value (Presence of Liver metastasis)?
**A.** The value was 24.7%.

**Q.** What about the “Overall response rate (ORR), %” value (Presence of Liver metastasis) of the same substance?
**A.** The value was 35.5%.

**Q.** What about the “Overall response rate (ORR), n/N” value (Presence of Liver metastasis) of the same substance?
**A.** The value was 33/93.

**Q.** What about the “Median OS” value (Primary upper tract disease) of the same substance?
**A.** Its value is 12.62 mo.

**Q.** And the “Median PFS” value (Primary upper tract disease)?
**A.** Its value is 5.62 mo.

**Q.** And the “OS, EV vs SC HR” value (Primary upper tract disease)?
**A.** The value was 0.848.

**Q.** What about the “Overall survival (OS) Events, %” value (Primary upper tract disease) of the same substance?
**A.** Its value is “(45) %”.

**Q.** And the “Overall survival (OS) Events, n/N” value (Primary upper tract disease)?
**A.** Its value is 44/98.

**Q.** And the “PFS, EV vs SC HR” value (Primary upper tract disease)?
**A.** The value was 0.716.

**Q.** What about the “Progression-free survival (PFS) Events, %” value (Primary upper tract disease) of the same substance?
**A.** The value was “(64) %”.

**Q.** And the “Progression-free survival (PFS) Events, n/N” value (Primary upper tract disease)?
**A.** Its value is 63/98.

**Q.** And the “ORR, EV vs SC Absolute Difference” value (Primary upper tract disease)?
**A.** The value was 24.8%.

**Q.** What about the “Overall response rate (ORR), %” value (Primary upper tract disease) of the same substance?
**A.** The value was 43.9%.

**Q.** What about the “Overall response rate (ORR), n/N” value (Primary upper tract disease) of the same substance?
**A.** Its value is 43/98.

**Q.** And the “ORR in hard-to-treat subgroups, EV compared to SC” value (across all subgroups)?
**A.** The value was “higher”.

**Q.** What about the “PFS in hard-to-treat subgroups, EV compared to SC” value (across all subgroups) of the same substance?
**A.** The value was “longer”.

**Q.** And the “OS in hard-to-treat subgroups, EV vs SC” value (liver metastasis, CPI nonresponsive, primary upper tract disease, poor prognostic factors, listed as EV)?
**A.** The value was “consistently longer”.

**Q.** And the “progression-free survival benefit in subgroup analyses” value (prespecified key subgroups, intention-to-treat population)?
**A.** Its value is “present across multiple subgroups”.
